Source: patent EP0343954B1, “Aromatic steroid 5-alpha-reductase inhibitors” (SMITHKLINE BEECHAM CORPORATION, priority 1988, dated 1989)

T1: human steroid 5-α-reductase (Homo sapiens, UniProt P31213)
T1 construct: an aliquot of prostatic particulate solution to a final volume of 0.5 ml of 50 mM sodium citrate, pH 5.0; from tissue; host or cells: hyperplastic human prostate; washed 140,000 x g particulate fraction
T1 sequence (P31213 1-254): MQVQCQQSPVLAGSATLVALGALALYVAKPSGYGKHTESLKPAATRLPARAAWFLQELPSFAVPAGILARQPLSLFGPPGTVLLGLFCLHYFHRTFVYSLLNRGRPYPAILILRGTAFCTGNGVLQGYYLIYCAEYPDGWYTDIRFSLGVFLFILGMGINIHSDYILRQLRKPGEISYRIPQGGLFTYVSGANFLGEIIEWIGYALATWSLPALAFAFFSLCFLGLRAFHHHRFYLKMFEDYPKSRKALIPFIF

B1: human steroid 5-α-reductase (Homo sapiens) (protein)
chain: MQVQCQQSPVLAGSATLVALGALALYVAKPSGYGKHTESLKPAATRLPARAAWFLQELPSFAVPAGILARQPLSLFGPPGTVLLGLFCLHYFHRTFVYSLLNRGRPYPAILILRGTAFCTGNGVLQGYYLIYCAEYPDGWYTDIRFSLGVFLFILGMGINIHSDYILRQLRKPGEISYRIPQGGLFTYVSGANFLGEIIEWIGYALATWSLPALAFAFFSLCFLGLRAFHHHRFYLKMFEDYPKSRKALIPFIF

Key:
[1] = target: T1, human steroid 5-α-reductase; experiment: Inhibition of human prostatic steroid 5-α-reductase: [14C]-testosterone conversion by prostatic particulate, Dixon plot; assay type: biochemical
Experimental: The potency of several compounds of the invention was tested for potency in inhibiting human steroid 5-α-reductase using tissue from hyperplastic human prostates. In determining potency in inhibiting the human enzyme, the following procedure was employed:
Frozen human prostates were thawed and minced into small pieces ( 5mm³). The tissue was homogenized in 3 to 5 volumes of 20 mM potassium phosphate, pH 6.5, buffer containing 0.33 M sucrose, 1 mM dithiothreitol, and 50 µM NADPH with a Brinkmann Polytron (Sybron Corporation, Westbury, New York). The solution was subjected to sonication for 3 to 5 minutes with a Sonifier (Branson Sonic Power Co.) followed by hand homogenization in a glass-to-glass Dounce homogenizer (Kontes Glass Company, Vineland, New Jersey).
Prostatic particles were obtained by differential centrifugation at 600 or 1000 x g for 20 minutes and 140,000 x g for 60 minutes at 4°C. The pellet obtained from the 140,000 x g centrifugation was washed with 5 to 10 tissue volumes of the buffer described above and recentrifuged at 140,000 x g. The resulting pellet was suspended in 20 mM potassium phosphate buffer, pH 6.5, containing 20% glycerol, 1 mM dithiothreitol, and 50 µM NADPH. The suspended particulate solution was stored at -80°C.
To each tube was added buffer, 20 µl of 10 mM NADPH and an aliquot of prostatic particulate solution to a final volume of 0.5 ml of 50 mM sodium citrate, pH 5.0. […] The organic layer was removed to a second test tube and evaporated to dryness in vacuo. The residue was dissolved in 20 to 30 µl chloroform, spotted on an individual lane of a 20 x 20 cm prechannelled silica gel TLC plate (Si 250F-PA, Baker Chemical) and developed twice with acetone:chloroform (1:9). The radiochemical content in the bands of the substrate and the products was determined with a BIOSCAN Imaging Scanner (Bioscan, Inc., Washington, D.C.). The percent of recovered radiolabel converted to product was calculated, from which enzyme activity was determined.
The experimentally obtained data was computer fitted to a linear function by plotting the reciprocal of the enzyme activity (1/velocity) against the variable inhibitor concentration (Dixon, M. (1953), Biochem. J., 55, 170).

steroid 5-α-reductase = experiment: In vivo inhibition of steroid 5-α-reductase: DHT levels in rat ventral prostate (HPLC, radioimmunoassay); set-up: species or system Male Charles River CD rats; conditions: rats, dose of 20mg/kg, four hours after compound administration, p<.15
Experimental: One of the compounds of the invention, 17β-(N-tert-butylcarboxamide)-estr-1,3,5(10)-triene-3-carboxylic acid, also was tested for its in vivo potency in inhibiting steroid 5-α-reductase activity. Male Charles River CD rats, 48 days old, weighing approximately 200 gm were administered this compound dissolved in propylene glycol and diluted in normal saline. Following compound administration the animals were sacrificed, the ventral prostates were excised, and DHT levels were measured by the following procedure.
Prostate tissue was excised, trimmed, weighed, minced and washed with phosphate buffer. The tissue then was homogenized in phosphate buffer and extracted by addition of ethyl acetate and mixing on an orbital mixer for forty-five minutes. The ethyl acetate was evaporated, the residue was reconstituted in ethanol, and was centrifuge filtered using […] filter paper. The components then were separated using reverse-phase HPLC collecting the DHT fraction. The fraction was reduced to dryness and reconstituted in standard DHT assay buffer available from Amersham. DHT levels then were measured using standard techniques such as radioimmunoassay.
In the compound-treated rats, prostatic DHT levels were decreased forty percent relative to vehicle-treated controls (p<.15) four hours after compound administration at a dose of 20mg/kg.

[2] = substrate: C[C@]12CC[C@H]3[C@@H](CCC4=CC(=O)CC[C@@]43C)[C@@H]1CC[C@@H]2O; experiment: purified protein, by the assay type; conditions: other: substrate of steroid 5-α-reductase, used in equation 1

Row | Molecule | Ki [1] [µM] | prostatic DHT levels decreased relative to vehicle-treated controls (steroid 5-α-reductase) | Km [2] [µM]
1 | Cc1cc2c(cc1C(=O)O)CC[C@@H]1[C@@H]2CC[C@]2(C)[C@@H](C(=O)N(C(C)C)C(C)C)CC[C@@H]12 [17β-(N,N-Diisopropylcarboxamide)-2-methyl-estr-1,3,5(10)-triene-3-carboxylic Acid] | 0.057 | – | –
2 | CC(C)N(C(=O)[C@H]1CC[C@H]2[C@@H]3C=Cc4cc(C(=O)O)ccc4[C@H]3CC[C@]12C)C(C)C [17β-(N,N-Diisopropylcarboxamide)-estr-1,3,5(10),6-tetraene-3-carboxylic Acid] | 0.03 | – | –
3 | CC(C)N(C(=O)C1=CC[C@H]2[C@@H]3CCc4cc(C(=O)O)ccc4[C@H]3CC[C@]12C)C(C)C [17β-(N,N-Diisopropylcarboxamide)-estr-1,3,5(10),16-tetraene-3-carboxylic Acid] | 0.07 | – | –
4 | CC(C)N(C(=O)[C@H]1CC[C@H]2[C@@H]3CCc4cc(C(=O)O)ccc4[C@H]3CC[C@]12C)C(C)C [17β-(N,N-Diisopropylcarboxamide)-estr-1,3,5(10)-triene-3-carboxylic Acid] | 0.019 | – | –
5 | CC(C)N(C(=O)[C@H]1CC[C@H]2[C@@H]3CCc4cc(CC(=O)O)ccc4[C@H]3CC[C@]12C)C(C)C [17β-(N,N-diisopropylcarboxamide)-estr-1,3,5(10)-triene-3-acetic acid] | 0.02 | – | –
6 | Cc1c(C(=O)O)ccc2c1CC[C@@H]1[C@@H]2CC[C@]2(C)[C@@H](C(=O)N(C(C)C)C(C)C)CC[C@@H]12 [17β-(N-N-Diisopropylcarboxamide)-4-methyl-estr-1,3,5(10)-triene-3-carboxylic Acid] | 0.27 | – | –
7 | CC(C)N(C(=O)[C@H]1CC[C@H]2c3ccc4cc(C(=O)O)ccc4c3CC[C@]12C)C(C)C [17β-(N-N-Diisopropylcarboxamide)-estr-1,3,5(10),-6,8-pentaene-3-carboxylic Acid] | 0.04 | – | –
8 | CC(C)(C)NC(=O)C1=CC[C@H]2[C@@H]3CCc4cc(C(=O)O)ccc4[C@H]3CC[C@]12C [17β-(N-tert-Butylcarboxamide)-estr-1,3,5(10),-16-tetraene-3-carboxylic Acid] | 0.06 | – | –
9 | CC(C)(C)NC(=O)[C@H]1CC[C@H]2[C@@H]3CCc4cc(C(=O)O)ccc4[C@H]3CC[C@]12C [17β-(N-tert-Butylcarboxamide)-estr-1,3,5(10)-triene-3-carboxylic Acid] | 0.043 | forty | –
10 | B1 | – | – | 4.5
